Test results: US4183931A, “2-Ketoalkyl-4(3H)-quinazolinones” (Research Corporation, priority 1977, dated 1980)
Like-named read-outs stand apart in the source and are kept apart here.

Columns and labels:
[1] = NPP maximal electroshock seizure (MES) protection; format: in vivo, white male mice of the Carworth Farm Strain CF-1; conditions: Mus musculus, ip; conducted at 30 mg/kg i.p.
[2] = NINCDS Subcutaneous Pentylenetetrazol (Metrazol) Seizure Threshold Test (scMet); format: in vivo, mice; conditions: for minimal effective dose: sc, read-out: scMet: dosage level that elicited protection
[3] = NINCDS rotorod ataxia test (minimal neurotoxicity); format: in vivo, mice; conditions: mouse, in vivo, ip; secondary evaluation, at time of peak effect
Description: (§1) 1. Neurological Activity Tests. The biological testing program is designed to evaluate the following four aspects of drug action: (1) the existence and specificity of anticonvulsant activity; (2) the toxicity, particularly to the central nervous system; and, if the results of (1) and (2) are favorable, (3) the potency and protective index, a comparison between toxic and effective dose and (4) the time course of activity. Compounds were evaluated for anticonvulsant activity in two seizure models, the maximal electroshock seizure (MES) test and the subcutaneous pentylenetetrazol (Metrazol) seizure threshold (scMet) test.
Central nervous system toxicity was evaluated in the rotorod ataxia test. This test is designed to detect minimal neurotoxicity. The animal is placed on a 1-inch diameter knurled plastic rod rotating at 6 rpm. Normal mice can remain indefinitely on a rod rotating at this speed. Neurological deficit is defined as the failure of the animal to remain on the rod for at least 1 minute. This test has a clear end-point, is quantifiable and correlates well with the clinical assessment of minimal toxicity.
(§2) Specific anticonvulsant evaluations performed by NINCDS using MES, scMet and Rotorod assays are presented in Tables III & IV for fourteen new compounds as well as several known compounds. Table III centers attention on 2-substituted-3-o-tolyl-4-(3H)-quinazolinones while Table IV includes the findings for various other 2,3-disubstituted-4(3H)-quinazolinones. As described earlier, the MES, scMet and Rotorod tests were performed one-half hour and four hours after administration of each compound. The tables identify the dosage level that elicited a positive result, such as protection against MES and scMet induced seizures, or loss of balance on the rotorod.
In the Secondary Evaluation, median effective doses (ED50) are determined in the MES, scMet and Rotorod assays using the procedures defined in Pharmacology, 95, 99-113 (1949). In addition, each compound's anticonvulsant activity and neurotoxicity over time are determined by measuring the effect of an intraperitoneally administered estimated median effective dose on maximal electroshock seizures and rotorod performance at intervals of 1/2, 1, 2, 3, 4, 6 and 8 hours.
Separate groups of animals are used for each time period. The times of peak toxic and anticonvulsant effect are taken from the resulting graph of percent of animals responding vs. time, and the determinations of median effective doses are performed at those times.

[4] = NINCDS primary evaluation, overall classification; format: in vivo, mice; conditions: mouse, in vivo
Description: as §1, §2

## O=C(Cc1nc2ccccc2c(=O)n1-c1ccccc1Cl)c1ccncc1 [IVd, 2-[2-Oxo-2-(4-pyridyl)ethyl]-3-o-chlorophenyl-4(3H)-quinazolinone]
[1]
  responders at 30 mg/kg: 50%
[2]; Mus musculus, ip, secondary evaluation, at time of peak effect
  ED50: 30.8 mg/kg
[2]; Mus musculus, after 0.5 hr
  minimal effective dose: 30 mg/kg
[2]; Mus musculus, after 4 hr (value in parentheses)
  minimal effective dose: 100 mg/kg
[2]; secondary evaluation
  PI scMet (Protective Index = TD50/ED50): 4.44
  potency against scMet seizures compared with methaqualone: more potent
  scMet protective index compared with Ethosuximide: higher scMet protective index than Ethosuximide
  scMet protective index compared with methaqualone: approximately four-fold higher
[2]; vs Ethotoin, Trimethadione, Paramethadione, Ethosuximide, Methsuximide, Phensuximide, Phenacamide (data of DHEW Publication No. (NIH) 76-1093)
  scMet ED50 compared with commercial petit mal agents: lower ED50 in the scMet screen than the commercially available petit mal agents
[3]
  TD50: 137 mg/kg
[4]
  dosage for useful anticonvulsant activity relative to dosage for sedative-hypnotic activity: fourfold lower
